Source: patent publication US20150335696A1, “METHODS OF DEGRADING AGEs AND USES THEREOF” (ARKRAY, Inc., priority 2014, published 2015)

Assay: AGEs-degrading activity: cleavage of AGEs crosslink model substance PPD, released benzoic acid measured by HPLC
Assay type: biochemical
Experimental: In the present example, AGEs-degrading activities of plant extracts were evaluated with 1-phenyl-1,2-propanedione (PPD) as an index.
The AGEs-degrading activity was evaluated by measuring the cleavage reaction of crosslinks in AGEs. Specifically, the evaluation was carried out in the following manner on the basis of the method described in Vasan et al. (Vasan S, et al., An agent cleaving glucose-derived protein crosslinks in vitro and in vivo. 1996. Nature; 382: pp. 275-278).
As a model substance for crosslinks in AGEs, 1-phenyl-1,2-propanedione (PPD) was used. A degradation reaction was caused by each extract sample with PPD as a substrate. More specifically, a reaction solution having the following composition was obtained by mixing the components in an Eppendorf tube, and the resultant mixture was incubated at 37° C. for 8 hours (n=3). […] The amount of benzoic acid released by the degradation of PPD in the supernatant was measured by HPLC carried out under the following conditions. Also, the amount of benzoic acid inherently contained in the extract sample was measured by HPLC carried out under the same conditions. Furthermore, as a positive control regarding the cleavage of crosslinks, the amount of released benzoic acid was measured in the same manner, except that 500 μL of 10 mmol/L phenacylthiazolium bromide (PTB) was used instead of the extract sample. […]

O=C(C[n+]1ccsc1)c1ccccc1.[Br-] [PTB, phenacylthiazolium bromide]
Relative activity Mean ± SD (%) (AGEs crosslink cleavage ratio relative to positive control PTB = 100%): 100.0%
AGEs crosslink cleavage ratio Mean ± SD (%) (PPD substrate, 37° C. for 8 hours, n=3, molar benzoic acid produced / molar PPD (B/P)): 38.2 ± 0.7%
